Reference: PubChem BioAssay (NCI)
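A five-concentration, 48-hour dose response in 96-well plates underlies each endpoint, interpolated linearly between surrounding concentrations. Here, GI50 denotes the concentration required for 50% inhibition of growth. TGI: total growth inhibition.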

Legend:
Test in all cases: NCI tumour cell line growth inhibition, 48 h
SF-268 CNS = system: SF-268 CNS
ACHN renal = system: ACHN renal
UACC-257 melanoma = system: UACC-257 melanoma
SNB-75 CNS = system: SNB-75 CNS
A549 NSCLC = system: A549 NSCLC
SK-OV-3 ovarian = system: SK-OV-3 ovarian
MDA-MB-468 breast = system: MDA-MB-468 breast
SNB-19 CNS = system: SNB-19 CNS
SF-295 CNS = system: SF-295 CNS
HOP-92 NSCLC = system: HOP-92 NSCLC
UACC-62 melanoma = system: UACC-62 melanoma
786-0 renal = system: 786-0 renal
SF-539 CNS = system: SF-539 CNS
HCT-116 colon = system: HCT-116 colon
IGROV1 ovarian = system: IGROV1 ovarian
SW-620 colon = system: SW-620 colon
MOLT-4 leukemia = system: MOLT-4 leukemia
M14 melanoma = system: M14 melanoma
HCC-2998 colon = system: HCC-2998 colon
SN12C renal = system: SN12C renal
HL-60(TB) leukemia = system: HL-60(TB) leukemia
EKVX NSCLC = system: EKVX NSCLC
RPMI-8226 leukemia = system: RPMI-8226 leukemia
K-562 leukemia = system: K-562 leukemia
MALME-3M melanoma = system: MALME-3M melanoma
HOP-62 NSCLC = system: HOP-62 NSCLC
MCF7 breast = system: MCF7 breast
RXF 393 renal = system: RXF 393 renal
SK-MEL-5 melanoma = system: SK-MEL-5 melanoma
SR leukemia = system: SR leukemia
CAKI-1 renal = system: CAKI-1 renal
OVCAR-5 ovarian = system: OVCAR-5 ovarian
MDA-MB-231 breast = system: MDA-MB-231 breast
NCI-H522 lung = system: NCI-H522 lung
MDA-MB-435 = system: MDA-MB-435
PC-3 prostate = system: PC-3 prostate
NCI-H226 lung = system: NCI-H226 lung
COLO 205 colon = system: COLO 205 colon
T-47D breast = system: T-47D breast
OVCAR-4 ovarian = system: OVCAR-4 ovarian
DU-145 prostate = system: DU-145 prostate
U251 CNS = system: U251 CNS
KM12 colon = system: KM12 colon
SK-MEL-28 melanoma = system: SK-MEL-28 melanoma
OVCAR-8 ovarian = system: OVCAR-8 ovarian
HT29 colon = system: HT29 colon
A498 renal = system: A498 renal
BT-549 breast = system: BT-549 breast
HS 578T breast = system: HS 578T breast
UO-31 renal = system: UO-31 renal
CCRF-CEM leukemia = system: CCRF-CEM leukemia
OVCAR-3 ovarian = system: OVCAR-3 ovarian
NCI-H460 lung = system: NCI-H460 lung
SK-MEL-2 melanoma = system: SK-MEL-2 melanoma
TK-10 renal = system: TK-10 renal
NCI-H23 lung = system: NCI-H23 lung
LOX IMVI melanoma = system: LOX IMVI melanoma
HCT-15 colon = system: HCT-15 colon

`Cc1cc(C2(c3cc(C)c(OCC(O)CNc4c(C)n(C)n(-c5ccccc5)c4=O)cc3C(C)C)OC(=O)c3ccccc32)c(C(C)C)cc1OCC(O)CNc1c(C)n(C)n(-c2ccccc2)c1=O` (stereo unspecified) was tested, and the GI50 (SF-268 CNS) was 18.1 µM, the TGI (SF-268 CNS) was > 100 µM and the GI50 (ACHN renal) was 23.6 µM. For the same compound, the TGI (ACHN renal) was > 100 µM, the GI50 (UACC-257 melanoma) was 24.1 µM and the TGI (UACC-257 melanoma) was > 100 µM. For the same compound, the GI50 (SNB-75 CNS) was 20.3 µM, the TGI (SNB-75 CNS) was > 100 µM and the GI50 (A549 NSCLC) was 23.1 µM. For the same compound, the TGI (A549 NSCLC) was > 100 µM, the GI50 (SK-OV-3 ovarian) was 49.2 µM and the TGI (SK-OV-3 ovarian) was > 100 µM. The GI50 (MDA-MB-468 breast) was 12.1 µM, the TGI (MDA-MB-468 breast) was 44.5 µM and the GI50 (SNB-19 CNS) was 23.5 µM. The TGI (SNB-19 CNS) was > 100 µM, the GI50 (SF-295 CNS) was 11.1 µM and the TGI (SF-295 CNS) was 32 µM. It also gave a GI50 (HOP-92 NSCLC) of 4.49 µM, a TGI (HOP-92 NSCLC) of 49.8 µM and a GI50 (UACC-62 melanoma) of 9.74 µM. For the same compound, the TGI (UACC-62 melanoma) was 24.4 µM, the GI50 (786-0 renal) was 19.2 µM and the TGI (786-0 renal) was 76.5 µM. For the same compound, the GI50 (SF-539 CNS) was 18.6 µM, the TGI (SF-539 CNS) was 52.9 µM and the GI50 (HCT-116 colon) was 16.9 µM. For the same compound, the TGI (HCT-116 colon) was 46.8 µM, the GI50 (IGROV1 ovarian) was 29 µM and the TGI (IGROV1 ovarian) was > 100 µM. For the same compound, the GI50 (SW-620 colon) was 28.2 µM, the TGI (SW-620 colon) was > 100 µM and the GI50 (MOLT-4 leukemia) was 6.78 µM. For the same compound, the TGI (MOLT-4 leukemia) was > 100 µM, the GI50 (M14 melanoma) was 17.8 µM and the TGI (M14 melanoma) was 44.7 µM. It also gave a GI50 (HCC-2998 colon) of 17.1 µM, a TGI (HCC-2998 colon) of 49.6 µM and a GI50 (SN12C renal) of 26.1 µM. For the same compound, the TGI (SN12C renal) was > 100 µM, the GI50 (HL-60(TB) leukemia) was 14.2 µM and the TGI (HL-60(TB) leukemia) was 79.7 µM. The GI50 (EKVX NSCLC) was 14.7 µM, the TGI (EKVX NSCLC) was > 100 µM and the GI50 (RPMI-8226 leukemia) was 13.9 µM. For the same compound, the TGI (RPMI-8226 leukemia) was 84.6 µM, the GI50 (K-562 leukemia) was 14.4 µM and the TGI (K-562 leukemia) was > 100 µM. The GI50 (MALME-3M melanoma) was 20 µM, the TGI (MALME-3M melanoma) was 52.9 µM and the GI50 (HOP-62 NSCLC) was 36.5 µM. For the same compound, the TGI (HOP-62 NSCLC) was > 100 µM, the GI50 (MCF7 breast) was 14 µM and the TGI (MCF7 breast) was 39.6 µM. It also gave a GI50 (RXF 393 renal) of 5.2 µM, a TGI (RXF 393 renal) of 38 µM and a GI50 (SK-MEL-5 melanoma) of 13.2 µM. For the same compound, the TGI (SK-MEL-5 melanoma) was 26.7 µM, the GI50 (SR leukemia) was 20.9 µM and the TGI (SR leukemia) was > 100 µM. For the same compound, the GI50 (CAKI-1 renal) was 4.11 µM, the TGI (CAKI-1 renal) was > 100 µM and the GI50 (OVCAR-5 ovarian) was 17.7 µM. It also gave a TGI (OVCAR-5 ovarian) of 56.3 µM, a GI50 (MDA-MB-231 breast) of 10.1 µM and a TGI (MDA-MB-231 breast) of 27.2 µM. For the same compound, the GI50 (NCI-H522 lung) was 26.9 µM, the TGI (NCI-H522 lung) was 94.1 µM and the GI50 (MDA-MB-435) was 14.7 µM. For the same compound, the TGI (MDA-MB-435) was 38.3 µM, the GI50 (PC-3 prostate) was 5.72 µM and the TGI (PC-3 prostate) was > 100 µM. The GI50 (NCI-H226 lung) was 15.7 µM, the TGI (NCI-H226 lung) was > 100 µM and the GI50 (COLO 205 colon) was 17.9 µM. For the same compound, the TGI (COLO 205 colon) was 41.8 µM, the GI50 (T-47D breast) was 18.5 µM and the TGI (T-47D breast) was > 100 µM. For the same compound, the GI50 (OVCAR-4 ovarian) was 27.2 µM, the TGI (OVCAR-4 ovarian) was > 100 µM and the GI50 (DU-145 prostate) was 34 µM. For the same compound, the TGI (DU-145 prostate) was > 100 µM, the GI50 (U251 CNS) was 25.9 µM and the TGI (U251 CNS) was 99.6 µM. The GI50 (KM12 colon) was 25.8 µM, the TGI (KM12 colon) was > 100 µM and the GI50 (SK-MEL-28 melanoma) was 23.2 µM. The TGI (SK-MEL-28 melanoma) was 92.9 µM, the GI50 (OVCAR-8 ovarian) was 27 µM and the TGI (OVCAR-8 ovarian) was > 100 µM. The GI50 (HT29 colon) was 26.7 µM, the TGI (HT29 colon) was > 100 µM and the GI50 (A498 renal) was 29.1 µM. The TGI (A498 renal) was > 100 µM, the GI50 (BT-549 breast) was 23.3 µM and the TGI (BT-549 breast) was > 100 µM. The GI50 (HS 578T breast) was 14.2 µM, the TGI (HS 578T breast) was > 100 µM and the GI50 (UO-31 renal) was 19.9 µM. The TGI (UO-31 renal) was > 100 µM, the GI50 (CCRF-CEM leukemia) was 15.5 µM and the TGI (CCRF-CEM leukemia) was > 100 µM. The GI50 (OVCAR-3 ovarian) was 19 µM, the TGI (OVCAR-3 ovarian) was 92.6 µM and the GI50 (NCI-H460 lung) was 15.6 µM. For the same compound, the TGI (NCI-H460 lung) was 43.4 µM, the GI50 (SK-MEL-2 melanoma) was 17.5 µM and the TGI (SK-MEL-2 melanoma) was 40.8 µM. For the same compound, the GI50 (TK-10 renal) was 49.3 µM, the TGI (TK-10 renal) was > 100 µM and the GI50 (NCI-H23 lung) was 23.5 µM. The TGI (NCI-H23 lung) was > 100 µM, the GI50 (LOX IMVI melanoma) was 14.4 µM and the TGI (LOX IMVI melanoma) was 30.3 µM. For the same compound, the GI50 (HCT-15 colon) was 17.1 µM and the TGI (HCT-15 colon) was 67.9 µM.
